The results in this text go back to ChEMBL document CHEMBL1201862, “PubChem BioAssay data set” (2004).

Each structure is given as a SMILES string. Active and inactive are the calls of the source. Bounds are passed on as bounds.

Assay [1] deals with Cytochrome P450 3A4 (Homo sapiens, UniProt P08684). The following applies: Potency.
A short description of assay [2]: C. albicans growth with fluconazole, confirmation, fluorescence, retest (AID 2467). It counts as functional, cell-based.
In assay [3] the target is T1, Rac GTPase-activating protein 1 (Homo sapiens, UniProt Q9H0H5).
T1 sequence (Q9H0H5 whole entry): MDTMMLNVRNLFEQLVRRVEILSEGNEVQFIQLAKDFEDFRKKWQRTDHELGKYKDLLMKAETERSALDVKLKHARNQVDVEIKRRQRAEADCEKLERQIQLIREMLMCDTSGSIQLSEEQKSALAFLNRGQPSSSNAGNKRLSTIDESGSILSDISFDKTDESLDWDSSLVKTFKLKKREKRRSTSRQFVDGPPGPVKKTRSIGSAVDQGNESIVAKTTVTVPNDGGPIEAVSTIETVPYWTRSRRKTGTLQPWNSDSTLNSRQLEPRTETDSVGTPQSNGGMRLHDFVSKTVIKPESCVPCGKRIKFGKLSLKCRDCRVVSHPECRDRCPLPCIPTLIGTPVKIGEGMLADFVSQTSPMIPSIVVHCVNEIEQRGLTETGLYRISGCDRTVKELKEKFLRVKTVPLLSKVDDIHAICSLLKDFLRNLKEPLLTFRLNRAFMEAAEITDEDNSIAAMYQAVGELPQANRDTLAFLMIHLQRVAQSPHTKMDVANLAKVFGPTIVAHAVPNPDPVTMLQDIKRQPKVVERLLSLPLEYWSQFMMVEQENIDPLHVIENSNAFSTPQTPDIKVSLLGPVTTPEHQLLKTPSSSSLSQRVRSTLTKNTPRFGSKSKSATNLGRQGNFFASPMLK
As to the kind of experiment: MgcRacGAP GTPase-activating activity inhibitors, confirmation, biochemical, ADP Hunter fluorescence, primary and confirmatory (AID 624330). It counts as functional.

The nature of assay [4]: NIH-3T3 fibroblast cytotoxicity, dose response, cytotoxicity control, cell-based, fluorescence, Alamar Blue, secondary assay (AID 2327).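 Also: NIH-3T3 mouse fibroblasts cultured with fluconazole at 8 µg/mL.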 It counts as functional.
Assay [5] can be described thus: cells. It counts as functional.
In assay [6] the target is T2, Endoribonuclease toxin MazF (Escherichia coli K-12, UniProt P0AE70).
T2 sequence (P0AE70 whole entry): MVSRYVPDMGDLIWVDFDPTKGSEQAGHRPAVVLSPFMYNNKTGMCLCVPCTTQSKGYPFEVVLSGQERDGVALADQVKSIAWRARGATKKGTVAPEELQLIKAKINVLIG
As to the kind of experiment: MazF toxin RNase activators, dose response, biochemical, fluorescence, single-stranded RNA substrate, uHTS hits (AID 588481). It counts as functional.

Assay [7] addresses T2, Endoribonuclease toxin MazF. As to the kind of experiment: fluorescent RNA oligo signal without MazF, dose response, counter-screen for MazEF activator project, biochemical, fluorescence, single-stranded RNase substrate (AID 588502). It counts as functional.
Assay [8] concerns P388/ADR. As to the kind of experiment: cells. It counts as functional. The following applies: Mus musculus.
For assay [9], the system named is SN12K1. As to the kind of experiment: cells. It counts as functional. The following applies: Homo sapiens.
The subject of assay [10] is P388. As to the kind of experiment: cells. The following applies: Mus musculus. It counts as functional.
Assay [11] concerns the target T3, Ubiquitin-conjugating enzyme E2 N (Homo sapiens, UniProt P61088).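 Also: Dose-response confirmation in a TR-FRET assay detecting UBC13-driven polyubiquitin chain formation, inhibition measured.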
T3 sequence (P61088 whole entry): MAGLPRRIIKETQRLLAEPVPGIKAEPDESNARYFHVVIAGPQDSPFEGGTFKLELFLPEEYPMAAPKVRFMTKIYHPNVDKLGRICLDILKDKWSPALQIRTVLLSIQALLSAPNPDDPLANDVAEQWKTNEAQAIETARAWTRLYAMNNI
It counts as functional.

Assay [12] in a line: control 3'UTR Renilla luciferase suppression, dose response, counter-screen for Shn3 inhibitor project, cell-based, Clone20-Shn3RL, cherry-picked (AID 624133). It counts as functional.
Assay [13] in a line: HepG2 cell cytotoxicity, dose response, cytotoxicity control for Shn3 inhibitor project, CellTiter-Glo, cherry-picked (AID 624134). It counts as functional, cell-based.
Assay [14] is described as follows: Shn3 3'UTR reporter inhibitors, dose response, cell-based, Clone20 osteoblasts, firefly luciferase, cherry-picked (AID 624132).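 Also: firefly luciferase luminescence from reporter carrying the Shn3 3'UTR in osteoblasts.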 It counts as functional.
The nature of assay [15]: growth suppression of beta-catenin-knockout colon cells, dose response, cell-based, HCT116, human colon tumor (AID 1045).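 Also: HCT116 colon tumor cells with beta catenin knocked out; cells exposed to compound for 60 hours.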 It counts as functional.
Assay [16] in a line: growth suppression of PTEN-null colon cells, dose response, cell-based, HCT116 PTEN knockout (AID 1047).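 Also: HCT116 colon tumor cells with PTEN knocked out; cells exposed to compound for 60 hours before readout; potency for loss of cell viability measured by luminescence.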 It counts as functional.
Assay [17] addresses T4, Calpain-2 catalytic subunit (Sus scrofa, UniProt P43367).
T4 sequence (P43367 whole entry): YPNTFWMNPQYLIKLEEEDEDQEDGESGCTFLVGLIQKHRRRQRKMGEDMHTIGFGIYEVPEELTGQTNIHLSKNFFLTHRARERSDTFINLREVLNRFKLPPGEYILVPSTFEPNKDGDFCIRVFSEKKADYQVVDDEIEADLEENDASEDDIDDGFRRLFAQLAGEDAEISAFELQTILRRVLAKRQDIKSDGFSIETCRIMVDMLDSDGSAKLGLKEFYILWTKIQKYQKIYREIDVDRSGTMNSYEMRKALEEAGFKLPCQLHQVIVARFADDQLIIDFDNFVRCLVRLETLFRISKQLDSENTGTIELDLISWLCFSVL
As to the kind of experiment: pig calpain II inhibitor potency, dose response, biochemical, fluorogenic peptide substrate (AID 1420). It counts as functional.

The nature of assay [18]: THP-1 cell cytotoxicity, dose response, cytotoxicity control for non-replicating M. tuberculosis project (AID 489025). It counts as functional.

Chain of Cytochrome P450 3A4 (P08684 whole entry): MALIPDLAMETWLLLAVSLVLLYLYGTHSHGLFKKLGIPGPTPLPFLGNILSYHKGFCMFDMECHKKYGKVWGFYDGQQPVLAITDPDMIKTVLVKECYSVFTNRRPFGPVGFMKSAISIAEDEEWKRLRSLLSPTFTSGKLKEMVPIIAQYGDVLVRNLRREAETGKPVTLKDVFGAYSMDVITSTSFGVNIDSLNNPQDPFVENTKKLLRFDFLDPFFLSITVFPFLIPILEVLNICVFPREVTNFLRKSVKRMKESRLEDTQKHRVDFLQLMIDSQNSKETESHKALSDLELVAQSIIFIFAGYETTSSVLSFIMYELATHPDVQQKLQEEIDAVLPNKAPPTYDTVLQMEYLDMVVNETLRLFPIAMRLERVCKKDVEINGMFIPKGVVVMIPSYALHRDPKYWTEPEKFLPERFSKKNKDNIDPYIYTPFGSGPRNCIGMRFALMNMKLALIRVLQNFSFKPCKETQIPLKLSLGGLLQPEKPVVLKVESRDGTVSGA

With `COC(=O)CCCCCN1C(=O)NC(c2ccccc2)C(C(=O)OCc2ccccc2)=C1C` (stereo not given), in [1], the AC50 was 10 µM (inconclusive).
Turning to `C/C(=N\NC(=O)CSCc1ccccc1Cl)c1cc(O)ccc1O`, the EC50 in [2] is > 38 µM (not active); in assay [4] it was > 160 µM (inactive). In assay [3], the IC50 was 24.3 µM (active).
On to `O=c1oc(/C=C/c2ccc([N+](=O)[O-])s2)nc2ccccc12`, for which the IC50 in [5] is 10.7 µM (active). In addition, the EC50 in assay [6] and in assay [7] was > 99 µM (inactive) each time.
As for `CCC1=C2CC[C@H]3C(=O)N(CC(=O)OC)C(=O)[C@H]3[C@H]2[C@@]2(C)/C(=N/CC(=O)OC)OC(=O)N2C1=O`, the AC50 in [1] was 25.1 µM (inconclusive).
`COc1cccc(N)c1`: the AC50 in assay [1] was 31.6 µM (inconclusive).
Take `Cn1c(=O)cc(N)n(Cc2ccccc2)c1=O`: in assay [1], the AC50 was 39.8 µM (inconclusive).
With `c1ccc(C(c2ccccc2)[P+](c2ccccc2)(c2ccccc2)c2ccccc2)cc1`, the results for the GI50 in assay [8], in assay [9] and in assay [10] were 12.4 µM (inactive), 0.345 µM (active) and 0.382 µM (active), respectively.
For `COc1cc2cc3c4cc(OC)c(OC)cc4cc[n+]3cc2cc1OC` the same measures were 12.6 µM (inactive), > 61.9 µM (inactive) and 0.881 µM (active).
For the molecule `O=C(Nc1cccc(F)c1)c1cc(S(=O)(=O)NCCC2=CCCCC2)ccc1F`, the IC50 in assay [11] is > 20 µM (inactive). Also, the AC50 was 13.9 µM (active) in assay [12], 39.8 µM (active) in assay [13] and 4.16 µM (active) in [14].
For `O=C(CSc1nc(-c2ccco2)cc(C(F)(F)F)n1)Nc1ccc(C(=O)N2CCCCC2)cc1`, the EC50 in assay [15] is 28.8 µM (active); in assay [16], 62.7 µM (active). For the same molecule, the AC50 is 0.774 µM (active) in assay [12], 51 µM (active) in assay [13] and 2.87 µM (active) in [14].
`CSc1nc(SC)c2cnn(CC3CO3)c2n1` (stereo not given): the figures for the GI50 in [8], in [9] and in [10] were 11.5 µM (inactive), 8.2 µM (inactive) and 15.6 µM (inactive), respectively.
As to `C#CCN1C(=O)S/C(=C\c2cc3c(cc2OC)OCO3)C1=O`, the EC50 in assay [6] was 12.5 µM (active); in [7], 17.1 µM (active).
Turning to `CN(Cc1cnc2nc(N)nc(N)c2n1)c1ccc(C(=O)NC(CCC(=O)O)C(=O)O)c2ccccc12` (stereo not given), the 50% growth inhibitory concentration (GI50) in assay [8] was < 0.01 µM (active); in assay [9] it was 0.01 µM (active); in assay [10], < 0.01 µM (active).
As for `CCC(=O)c1cn(CC(=O)Nc2ccccc2Cl)c2ccccc12`, the AC50 was 6.05 µM (active) in assay [12] and < 0.26 µM (active) in assay [14]. The EC50 in assay [6] and in assay [7] was > 99 µM (inactive) in each case.
With `COc1cccc2c1C(=O)c1c(O)c3c(c(O)c1C2=O)CC(O)(C(=O)CO)CC3OC1CC(N)C(I)C(C)O1` (stereo not given), the GI50 in assay [8] was 0.547 µM (active); in assay [10], 0.0612 µM (active).
Turning to `CCCN1C(=O)S/C(=C\c2ccc(N3CCOCC3)o2)C1=O`, the AC50 in assay [12] was 25.8 µM (active); in assay [13], > 70 µM (inactive); in assay [14], 6.37 µM (active). The IC50 in [5] is 21.9 µM (active).
For `CC(C)Cn1c(N)c(C(=O)COC(=O)c2cnc(Cl)c(Cl)c2)c(=O)n(C)c1=O`, the IC50 in [17] is 15.3 µM (not active); in assay [5], 13.2 µM (active). For the same molecule, the CC50 in [18] was 25.7 µM (active).
As to `CCN(CC)CCCCn1c(-c2ccccc2)nc2c(N3CCOCC3)nc(C)nc21`, the AC50 in assay [1] was 7.94 µM (inconclusive).
In the case of `CCC(=O)c1ccc(OCc2ccc(C(=O)c3ccccc3)cc2)cc1`, the AC50 was 5.86 µM (active) in [12], 26.3 µM (active) in assay [13] and 3.29 µM (active) in assay [14].
